# Measured values as given in EP2966448B1, “METHOD FOR THE PREDICTION OR PROGNOSIS OF THE RESPONSE OF A HUMAN SUBJECT SUFFERING FROM CANCER TO TREATMENT WITH AN ANTAGONIST OF THE NK1 RECEPTOR” (priority 2013, dated 2014).
# Where two headings read alike, the source gives them in different places.
# Experiments:
# [1] = test system: Lung carcinoma (non small cell lung carcinoma); experiment: Inhibition of primary tumor cell cultures vs Kras mutation (Example 2); type: cell-based, human; conditions: Lung carcinoma (non small cell lung carcinoma), 100 micromolar
# Experimental: (§1) To obtain tumor cells from human primary tumors we used the method described in De Bari et al. (De Bari et al. 2001). Briefly, small pieces of the tumors were digested into a hyaluronidase solution (Sigma-Aldrich, USA) at a concentration of 1 mg/ml during 15 minutes at 37°C, and then they were treated with 6 mg/ml of collagenase type IV (Invitrogen) during 2 hours at 37°C. Consecutively, cells were washed, and resuspended in the DMEM culture medium with high concentration of glucose (Dulbecco's Modified Eagle's Medium, Invitrogen) supplemented with 1% of antibiotics-antimycotics (Invitrogen) and with 1% of sodium pyruvate (Invitrogen), and the cells were seeded in culture slides at a concentration of 10.000 cells per square centimeter. When cells reached confluence, the adherent cells were separated using sterile trypsin at 0,5% (Invitrogen) and they were used among passages 3 and 9. For the assays shown next, tumor cells were seeded on slides at a concentration of 25.000 cells per well. A total of 6 wells containing the tumor cells were used as survival control. […] All the cultures were kept during 48 hours and later on recollected for their analysis.
# (§2) In each case the presence or not of mutations in K-ras gene was determined.
# (§3) To determine the existence of mutations in the K-ras gene DNA from cancer tumor cells was extracted from samples obtained from the different cancer tumor cells, using DNA extraction kits from Takara (Madison, WI, US) or Ambion (Huntingdon, Cambridgeshire, United Kingdom), following the manufacturer's instructions, and as it has been previously published (Di Fiore F, et al. 2007). Consecutively it was analyzed by sequencing the exon 2 of the KRAS gene, , by means of PCR amplification from previously extracted cancer tumor DNA, using the following sense primer (SEQ ID NO. 15): 5'-[sequence]-3' and anti-sense primer (SEQ ID NO. 16): 5'-[sequence]-3'. After the purification using the Qiagen extraction kit, the PCR products were sequenced using the Big Dye Terminator Kit V3.1 (Applied Biosystems, Foster City, CA, U.S.) and an ABI Prism 377 or 3100 DNA sequencer (Applied Biosystems). The presence of a heterozygous mutation in the KRAS gene in cancer tumor cells of the cultures was defined as the appearance of a mutant peak of a height of at least a third of the wild type. All the sequence analysis were executed at least twice in two independent PCR.
# (§4) The antibody against NK1 receptor (Table 16) was used at 1/50 concentration. The percentages of inhibition are expressed in percentage of variation in relation to control ± standard deviation.
# [2] = test system: Non Hodgkin Lymphoma T (diffuse T cell lymphoma); experiment: as above; type: cell-based, human; conditions: Non Hodgkin Lymphoma T (diffuse T cell lymphoma), 100 micromolar
# Experimental: (§5) Cell cultures. To obtain tumor cells from human primary tumors we used the method described in De Bari et al. (De Bari et al. 2001). Briefly, small pieces of the tumors were digested into a hyaluronidase solution (Sigma-Aldrich, USA) at a concentration of 1 mg/ml during 15 minutes at 37°C, and then they were treated with 6 mg/ml of collagenase type IV (Invitrogen) during 2 hours at 37°C. Consecutively, cells were washed, and resuspended in the DMEM culture medium with high concentration of glucose (Dulbecco's Modified Eagle's Medium, Invitrogen) supplemented with 1% of antibiotics-antimycotics (Invitrogen) and with 1% of sodium pyruvate (Invitrogen), and the cells were seeded in culture slides at a concentration of 10.000 cells per square centimeter. When cells reached confluence, the adherent cells were separated using sterile trypsin at 0,5% (Invitrogen) and they were used among passages 3 and 9. For the assays shown next, tumor cells were seeded on slides at a concentration of 25.000 cells per well. A total of 6 wells containing the tumor cells were used as survival control. […] All the cultures were kept during 48 hours and later on recollected for their analysis.
# as §2, §3
# The percentages of inhibition are expressed in percentage of variation in relation to control ± standard deviation.
# [3] = test system: human primary tumor cells; experiment: Inhibition of primary tumor cell cultures vs amplification of the gene encoding the NK1 receptor (Example 6; tumor type per table line); type: cell-based; conditions: for Percentage of inhibition of cell cultures: 100 micromolar
# [4] = test system: Lung carcinoma (small cell type); experiment: Inhibition of primary tumor cell cultures (48 hours) vs NK1 receptor immunostaining (Example 1); type: cell-based; conditions: Homo sapiens, 1 micromolar, read-out: Percentage of inhibition of cell cultures
# Experimental: as §5
# (§6) Immunohistochemistry techniques. The presence of NK1 receptors was also analyzed using immunohistochemistry techniques. Briefly, a sample of each of the cultures of the cell lines used in the present invention, was centrifuged (5 minutes at 1.500 rpm) and the pellet obtained was dehydrated using increasing concentrations of ethanol and, finally, xylol. Then, said dehydrated samples were embedded in paraffin, creating a block of cells. Such paraffin blocks were cut with a microtome at 5 microns thickness, and were placed on microscope slides adequate to perform immunohistochemistry techniques. Consecutively, they were de-paraffinized by immersing them in xylol, to be finally hydrated using a solution containing decreasing concentrations of ethanol, and finally submerged them into water. […] After this, the samples were left to cool down at room temperature for 10 minutes. The endogenous peroxidase activity was blocked with 3% peroxide of hydrogen for 30 minutes at room temperature. After washing the samples with 0.05 M of Tris buffer, they were incubated with 10% non-immune pork serum at for 30 minutes at room temperature. To analyze the expression of NK1 receptors, the cellular samples were incubated in the presence of anti-NK1 antibodies (S8305, Sigma-Aldrich) diluted 1:1000, overnight at 4°C. Afterwards, the samples were washed in Tris buffer 0.05 M at room temperature. The next step was the addition of Envision System-HRP (Dako) reagents for 30 minutes at room temperature. Then, the samples were washed again in Tris buffer 0.05 M and the immunoreactivity was visualized through light microscopy with a chromogenic solution containing 3,3'-Diaminobenzidine (DAB+; Dako, USA). To differentiate the cell nuclei, they were slightly stained with hematoxylin. As negative control, it was used samples not incubated with the primary antibody anti-NK1, which was replaced by non-immune serum. All the samples were evaluated.
# (§7) To value the immunostaining in each of the cases six cuts were performed to be analyzed by the immunohistochemistry technique. In each of the six cuts, it was counted cells in 20 fields (magnification 400x) using an Olympus microscope (model CX31). In each field it was counted the total number of cells and the number of cells presenting immunostaining, calculating afterwards the percentage of cells which presented immunostaining.
# [5] = test system: Urinary bladder carcinoma (transitional cell carcinoma); experiment: Inhibition of primary tumor cell cultures vs Kras mutation (Example 2); type: cell-based, human; conditions: Urinary bladder carcinoma (transitional cell carcinoma), 100 micromolar
# Experimental: as §1, §2, §3, §4
# [6] = test system: Breast carcinoma (ductal adenocarcinoma); experiment: as above; type: cell-based, human; conditions: Breast carcinoma (ductal adenocarcinoma), 100 micromolar
# Experimental: (§8) Cell cultures. […] Briefly, small pieces of the tumors were digested into a hyaluronidase solution (Sigma-Aldrich, USA) at a concentration of 1 mg/ml during 15 minutes at 37°C, and then they were treated with 6 mg/ml of collagenase type IV (Invitrogen) during 2 hours at 37°C. Consecutively, cells were washed, and resuspended in the DMEM culture medium with high concentration of glucose (Dulbecco's Modified Eagle's Medium, Invitrogen) supplemented with 1% of antibiotics-antimycotics (Invitrogen) and with 1% of sodium pyruvate (Invitrogen), and the cells were seeded in culture slides at a concentration of 10.000 cells per square centimeter. When cells reached confluence, the adherent cells were separated using sterile trypsin at 0,5% (Invitrogen) and they were used among passages 3 and 9. For the assays shown next, tumor cells were seeded on slides at a concentration of 25.000 cells per well. A total of 6 wells containing the tumor cells were used as survival control. […] All the cultures were kept during 48 hours and later on recollected for their analysis.
# as §2, §3, §4
# [7] = test system: Ovarian carcinoma (Adenocarcinoma); experiment: as above; type: cell-based, human; conditions: Ovarian carcinoma (Adenocarcinoma), 100 micromolar
# Experimental: as §8, §2, §3, §4
# Endometrium carcinoma = experiment: as above; type: cell-based, human; conditions: Endometrium carcinoma, 100 micromolar
# Experimental: as §8, §2, §3, §4
# Myeloma = experiment: Inhibition of primary tumor cell cultures (48 hours) vs NK1 receptor immunostaining (Example 1); type: cell-based; conditions: Homo sapiens, 1 micromolar, read-out: Percentage of inhibition of cell cultures
# Experimental: as §5, §6, §7
# [8] = test system: Lung carcinoma (small cell lung carcinoma); experiment: Inhibition of primary tumor cell cultures vs Kras mutation (Example 2); type: cell-based, human; conditions: Lung carcinoma (small cell lung carcinoma), 100 micromolar
# Experimental: as §1, §2, §3, §4
# [9] = test system: human primary tumor cells; experiment: Inhibition of primary tumor cell cultures vs absence or presence of ERK  protein (Example 3; tumor type per table line); type: cell-based; conditions: 100 micromolar
# [10] = Cases with Kras non-mutated (wild type)
# [11] = NK1 receptor immunostaining Group 1 (less than 20% of the cells)
# [12] = NK1 receptor immunostaining Group 2 (20-80% of the cells)
# [13] = NK1 receptor immunostaining Group 3 (more than 80% of the cells)
# [14] = NK1 receptor immunostaining Intensity grade 1
# [15] = NK1 receptor immunostaining Intensity grade 2
# [16] = NK1 receptor immunostaining Intensity grade 3
structure (smiles),measurement,setting,value
Cc1cc(F)ccc1[C@H]1CNCCN1C(=O)N(C)[C@H](C)c1cc(C(F)(F)F)cc(C(F)(F)F)c1 [Vestipitant],Percentage of inhibition of cell cultures,[1]; Cases with Kras mutated,24±5 percentage
same,Percentage of inhibition of cell cultures,[1]; [10],96±6 percentage
same,Percentage of inhibition of cell cultures,[2]; Cases with Kras mutated,25±5 percentage
same,Percentage of inhibition of cell cultures,[2]; [10],96±5 percentage
same,Percentage of inhibition of cell cultures,"[3]; Breast carcinoma (ductal adenocarcinoma), Cases with amplification of the gene that encodes for the NK1 receptor",94±6 percentage
same,Percentage of inhibition of cell cultures,"[3]; Breast carcinoma (ductal adenocarcinoma), Cases without amplification of the gene that encodes for the NK1 receptor",24±3 percentage
same,Percentage of inhibition of cell cultures,"[3]; Burkitt Lymphoma, Cases with amplification of the gene that encodes for the NK1 receptor",97±5 percentage
same,Percentage of inhibition of cell cultures,"[3]; Burkitt Lymphoma, Cases without amplification of the gene that encodes for the NK1 receptor",23±5 percentage
same,Percentage of inhibition of cell cultures,"[3]; Carcinoma of the uterine cervix (Squamous cell carcinoma), Cases with amplification of the gene that encodes for the NK1 receptor",94±6 percentage
same,Percentage of inhibition of cell cultures,"[3]; Carcinoma of the uterine cervix (Squamous cell carcinoma), Cases without amplification of the gene that encodes for the NK1 receptor",26±6 percentage
same,Percentage of inhibition of cell cultures,"[3]; Colon carcinoma (Adenocarcinoma), Cases with amplification of the gene that encodes for the NK1 receptor",93±3 percentage
same,Percentage of inhibition of cell cultures,"[3]; Colon carcinoma (Adenocarcinoma), Cases without amplification of the gene that encodes for the NK1 receptor",24±4 percentage
same,Percentage of inhibition of cell cultures,"[3]; Endometrium carcinoma, Cases with amplification of the gene that encodes for the NK1 receptor",95±5 percentage
same,Percentage of inhibition of cell cultures,"[3]; Endometrium carcinoma, Cases without amplification of the gene that encodes for the NK1 receptor",23±5 percentage
same,Percentage of inhibition of cell cultures,"[3]; Gastric carcinoma (Adenocarcinoma), Cases with amplification of the gene that encodes for the NK1 receptor",94±4 percentage
same,Percentage of inhibition of cell cultures,"[3]; Gastric carcinoma (Adenocarcinoma), Cases without amplification of the gene that encodes for the NK1 receptor",25±5 percentage
same,Percentage of inhibition of cell cultures,"[3]; Glioma (astrocytoma), Cases with amplification of the gene that encodes for the NK1 receptor",94±7 percentage
same,Percentage of inhibition of cell cultures,"[3]; Glioma (astrocytoma), Cases without amplification of the gene that encodes for the NK1 receptor",26±5 percentage
same,Percentage of inhibition of cell cultures,"[3]; Lung carcinoma (non small cell lung carcinoma), Cases with amplification of the gene that encodes for the NK1 receptor",93±5 percentage
same,Percentage of inhibition of cell cultures,"[3]; Lung carcinoma (non small cell lung carcinoma), Cases without amplification of the gene that encodes for the NK1 receptor",24±4 percentage
same,Percentage of inhibition of cell cultures,"[3]; Lung carcinoma (small cell lung carcinoma), Cases with amplification of the gene that encodes for the NK1 receptor",94±4 percentage
same,Percentage of inhibition of cell cultures,"[3]; Lung carcinoma (small cell lung carcinoma), Cases without amplification of the gene that encodes for the NK1 receptor",25±3 percentage
same,Percentage of inhibition of cell cultures,"[3]; Melanoma (Nodular Melanoma), Cases with amplification of the gene that encodes for the NK1 receptor",96±5 percentage
same,Percentage of inhibition of cell cultures,"[3]; Melanoma (Nodular Melanoma), Cases without amplification of the gene that encodes for the NK1 receptor",24±6 percentage
same,Percentage of inhibition of cell cultures,"[3]; Non Hodgkin Lymphoma B (diffuse B cell lymphoma), Cases with amplification of the gene that encodes for the NK1 receptor",94±6 percentage
same,Percentage of inhibition of cell cultures,"[3]; Non Hodgkin Lymphoma B (diffuse B cell lymphoma), Cases without amplification of the gene that encodes for the NK1 receptor",27±5 percentage
same,Percentage of inhibition of cell cultures,"[3]; Non Hodgkin Lymphoma T (diffuse T cell lymphoma), Cases with amplification of the gene that encodes for the NK1 receptor",95±4 percentage
same,Percentage of inhibition of cell cultures,"[3]; Non Hodgkin Lymphoma T (diffuse T cell lymphoma), Cases without amplification of the gene that encodes for the NK1 receptor",29±3 percentage
same,Percentage of inhibition of cell cultures,"[3]; Ovarian carcinoma(Adenocarcinoma), Cases with amplification of the gene that encodes for the NK1 receptor",96±5 percentage
same,Percentage of inhibition of cell cultures,"[3]; Ovarian carcinoma(Adenocarcinoma), Cases without amplification of the gene that encodes for the NK1 receptor",25±4 percentage
same,Percentage of inhibition of cell cultures,"[3]; Pancreatic carcinoma (Adenocarcinoma), Cases with amplification of the gene that encodes for the NK1 receptor",93±4 percentage
same,Percentage of inhibition of cell cultures,"[3]; Pancreatic carcinoma (Adenocarcinoma), Cases without amplification of the gene that encodes for the NK1 receptor",25±3 percentage
same,Percentage of inhibition of cell cultures,"[3]; Prostate carcinoma, Cases with amplification of the gene that encodes for the NK1 receptor",96±6 percentage
same,Percentage of inhibition of cell cultures,"[3]; Prostate carcinoma, Cases without amplification of the gene that encodes for the NK1 receptor",25±6 percentage
same,Percentage of inhibition of cell cultures,"[3]; Renal cell carcinoma (clear cell renal cell carcinoma), Cases with amplification of the gene that encodes for the NK1 receptor",94±5 percentage
same,Percentage of inhibition of cell cultures,"[3]; Renal cell carcinoma (clear cell renal cell carcinoma), Cases without amplification of the gene that encodes for the NK1 receptor",27±4 percentage
same,Percentage of inhibition of cell cultures,"[3]; Thyroid carcinoma (follicular carcinoma), Cases with amplification of the gene that encodes for the NK1 receptor",94±6 percentage
same,Percentage of inhibition of cell cultures,"[3]; Thyroid carcinoma (follicular carcinoma), Cases without amplification of the gene that encodes for the NK1 receptor",25±5 percentage
same,Percentage of inhibition of cell cultures,"[3]; Thyroid carcinoma (papillary carcinoma), Cases with amplification of the gene that encodes for the NK1 receptor",97±4 percentage
same,Percentage of inhibition of cell cultures,"[3]; Thyroid carcinoma (papillary carcinoma), Cases without amplification of the gene that encodes for the NK1 receptor",26±3 percentage
same,Percentage of inhibition of cell cultures,"[3]; Undifferentiated Pleomorphic Sarcoma (malignant fibrous histiocytoma grade 3), Cases with amplification of the gene that encodes for the NK1 receptor",95±7 percentage
same,Percentage of inhibition of cell cultures,"[3]; Undifferentiated Pleomorphic Sarcoma (malignant fibrous histiocytoma grade 3), Cases without amplification of the gene that encodes for the NK1 receptor",27±4 percentage
same,Percentage of inhibition of cell cultures,"[3]; Urinary bladder carcinoma (transitional cell carcinoma), Cases with amplification of the gene that encodes for the NK1 receptor",95±5 percentage
same,Percentage of inhibition of cell cultures,"[3]; Urinary bladder carcinoma (transitional cell carcinoma), Cases without amplification of the gene that encodes for the NK1 receptor",24±5 percentage
same,inhibition of cell proliferation,"[3]; cancer cell cultures which show amplification in the genomic region encoding the NK1 receptor, compared, non-peptidic antagonists 100 micromolar, antibody 1/50",higher inhibition
same,inhibition at 1 µM,[4]; [11],16 ± 3%
same,inhibition at 1 µM,[4]; [12],46 ± 3%
same,inhibition at 1 µM,[4]; [13],93 ± 3%
same,inhibition at 1 µM,[4]; [14],18 ± 3%
same,inhibition at 1 µM,[4]; [15],45 ± 3%
same,inhibition at 1 µM,[4]; [16],93 ± 3%
same,Percentage of inhibition of cell cultures,[5]; Cases with Kras mutated,25±5 percentage
same,Percentage of inhibition of cell cultures,[5]; [10],95±6 percentage
same,Percentage of inhibition of cell cultures,[6]; Cases with Kras mutated,26±4 percentage
same,Percentage of inhibition of cell cultures,[6]; [10],97±5 percentage
same,Percentage of inhibition of cell cultures,[7]; Cases with Kras mutated,27±5 percentage
same,Percentage of inhibition of cell cultures,[7]; [10],96±6 percentage
same,Percentage of inhibition of cell cultures,Endometrium carcinoma; Cases with Kras mutated,24±6 percentage
same,Percentage of inhibition of cell cultures,Endometrium carcinoma; [10],95±4 percentage
same,inhibition at 1 µM,Myeloma; [11],15 ± 2%
same,inhibition at 1 µM,Myeloma; [12],45 ± 4%
same,inhibition at 1 µM,Myeloma; [13],93 ± 6%
same,inhibition at 1 µM,Myeloma; [14],17 ± 2%
same,inhibition at 1 µM,Myeloma; [15],47 ± 4%
same,inhibition at 1 µM,Myeloma; [16],93 ± 5%
same,Percentage of inhibition of cell cultures,[8]; Cases with Kras mutated,23±4 percentage
same,Percentage of inhibition of cell cultures,[8]; [10],95±4 percentage
same,Percentage of inhibition of cell cultures,"[9]; Breast carcinoma (ductal adenocarcinoma), cases with presence of ERK",94±3 percentage
same,Percentage of inhibition of cell cultures,"[9]; Breast carcinoma (ductal adenocarcinoma), cases without presence of ERK",26±4 percentage
same,Percentage of inhibition of cell cultures,"[9]; Burkitt Lymphoma, cases with presence of ERK",93±5 percentage
same,Percentage of inhibition of cell cultures,"[9]; Burkitt Lymphoma, cases without presence of ERK",26±4 percentage
same,Percentage of inhibition of cell cultures,"[9]; Carcinoma of the uterine cervix (Squamous cell carcinoma), cases with presence of ERK",94±4 percentage
same,Percentage of inhibition of cell cultures,"[9]; Carcinoma of the uterine cervix (Squamous cell carcinoma), cases without presence of ERK",29±3 percentage
same,Percentage of inhibition of cell cultures,"[9]; Colon carcinoma (Adenocarcinoma), cases with presence of ERK",94±3 percentage
same,Percentage of inhibition of cell cultures,"[9]; Colon carcinoma (Adenocarcinoma), cases without presence of ERK",23 percentage
same,Percentage of inhibition of cell cultures,"[9]; Endometrium carcinoma, cases with presence of ERK",93±3 percentage
same,Percentage of inhibition of cell cultures,"[9]; Endometrium carcinoma, cases without presence of ERK",28±5 percentage
same,Percentage of inhibition of cell cultures,"[9]; Gastric carcinoma (Adenocarcinoma), cases with presence of ERK",95±3 percentage
